Reference: ChEMBL document CHEMBL1128137, “A novel series of highly potent 5-lipoxygenase inhibitors; 2-aryldienylbenzoxazoles” (Bioorg Med Chem Lett, 1995)

Molecular target: T1, Polyunsaturated fatty acid 5-lipoxygenase (Rattus norvegicus, UniProt P12527)
T1 sequence (P12527 whole entry): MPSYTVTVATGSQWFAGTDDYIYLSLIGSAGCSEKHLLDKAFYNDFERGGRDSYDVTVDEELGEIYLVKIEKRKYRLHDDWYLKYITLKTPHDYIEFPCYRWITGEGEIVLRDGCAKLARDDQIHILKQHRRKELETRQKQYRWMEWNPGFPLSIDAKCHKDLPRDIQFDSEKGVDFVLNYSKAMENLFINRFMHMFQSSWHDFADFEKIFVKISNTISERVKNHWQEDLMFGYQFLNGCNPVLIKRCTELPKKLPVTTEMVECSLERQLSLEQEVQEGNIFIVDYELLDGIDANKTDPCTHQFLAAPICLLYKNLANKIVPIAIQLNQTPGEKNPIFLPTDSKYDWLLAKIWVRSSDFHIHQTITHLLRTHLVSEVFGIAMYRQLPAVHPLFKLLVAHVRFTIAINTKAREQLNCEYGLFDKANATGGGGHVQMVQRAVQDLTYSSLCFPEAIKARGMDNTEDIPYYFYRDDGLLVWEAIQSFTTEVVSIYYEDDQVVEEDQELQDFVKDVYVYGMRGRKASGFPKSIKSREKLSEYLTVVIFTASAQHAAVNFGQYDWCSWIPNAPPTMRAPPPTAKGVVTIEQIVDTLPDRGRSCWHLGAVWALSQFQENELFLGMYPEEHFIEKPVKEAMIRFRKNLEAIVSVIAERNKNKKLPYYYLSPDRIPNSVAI
Assay: Inhibition of 5-lipoxygenase of rat basophilic leukemia (RBL) cell cytosolic enzymes
Set-up: species or system RBL-1

| SMILES | IC50 [nM] |
| --- | --- |
| COc1cc(/C=C/C=C/c2nc3cc(Cl)ccc3o2)ccc1O | 380 |
| COc1cc(/C=C/C=C/C(=O)NCCN2CCC(OC(c3ccccc3)c3ccccc3)CC2)ccc1O | 150 |
| Oc1ccc(/C=C/C=C/c2nc3ccccc3o2)cc1O | 30 |
| COc1cc(/C=C/C=C/c2nc3ccccc3o2)ccc1O | 330 |
| COc1cc(/C=C/C=C/c2nc3ccc(CO)cc3o2)ccc1O | 300 |
| COc1cc(/C=C/C=C/c2nc3ncccc3o2)ccc1O | 370 |
| COc1cc(/C=C/C=C/c2nc3c(ccc4ccccc43)o2)ccc1O | 170 |
| COc1cc(/C=C/C=C/c2nc3cc(CO)ccc3o2)ccc1O | 260 |
| COc1cc(/C=C/C=C/c2nc3cc(C)ccc3o2)ccc1O | 290 |
| CCOC(=O)/C=C/c1ccc(O)c(O)c1 [ETHYL CAFFEATE] | 1150 |

The next lines start with the values.

| IC50 [nM] | SMILES |
| --- | --- |
| 5800 | COc1cc(/C=C/C=C/c2nc3cc(C(=O)O)ccc3o2)ccc1O |
| 130 | CCOC(=O)c1ccc2nc(/C=C/C=C/c3ccc(O)c(OC)c3)oc2c1 |
| 250 | CCOC(=O)c1ccc2oc(/C=C/C=C/c3ccc(O)c(OC)c3)nc2c1 |
| 20 | CCOC(=O)c1ccc2oc(/C=C/C=C/c3ccc(O)c(O)c3)nc2c1 |
